Values quoted from earlier work in patent US8153109B2, “Alkylene carbonate dilution, alkylene carbonate for preparing the dilution, and aqueous reducing chemical agent” (San-Ei Kagaku Co., Ltd., priority 2006, dated 2012).

Conditions: test day 10, emulsified chemical agent, in some cases

SMILES: O=C1OCCC1S (stereo not shown) [2-mercapto-4-butyrolactone]
- percent decomposition of 2-mercapto-4-butyrolactone: about 30%
